Test results: ChEMBL document CHEMBL3832542, “DailyMed|setid=00f30ef0-e65c-4b41-ad1b-afaab9bcfc7d | CLONIDINE- clonidine patch, extended release|Lake Erie Medical DBA Quality Care Products LLC”

Assays:
[1] = Pharmacokinetic parameters for Clonidine evaluated following oral or intravenous administration of Clonidine to subjects.; details: human, in vivo
[2] = Steady-state pharmacokinetic parameters for Clonidine evaluated following transdermal administration of 0.1, 0,2 and 0.3 mg doses of Clonidine to the upper outer arm for 7 days.; details: human, in vivo, topical or ocular

CL renal [1]: 102 mL/min
Vd [1]: 197 L
clearance [1]: 177 mL/min
half-life [1]: 12 to 16 h
bioavailability at 168 h [2]: 60%
half-life at 168 h [2]: 24 h
Compound: Clc1cccc(Cl)c1N=C1NCCN1 [CLONIDINE]
